Key:
[1] = tested on: hyperlocomotion of the mice induced by MK801; assay: Open field test, hyperlocomotion induced by MK801; assay type: in vivo, C57B6 male mice; details: for Distance travelled (cm): 5-minute bin
Protocol: Experimental method: The experimental animals were C57B6 male mice, n=8 in each group. This model used C57B6 mice as experimental animals. Hyperlocomotion of the mice in open field was induced by acute injection of a NMDA antagonist MK801. and modeled to test the inhibitory effect of different compounds on hyperkinesia phenotype induced by MK801. All mouse behavior experiments were carried out during the light period, and the whole process was recorded by the camera and locomotive data were tracked and analyzed by behavioral tracking software. The compounds were administered intraperitoneally. Immediately after the injection, the mice entered the open field and their movement trajectories were recorded by the camera. After 30 minutes, the mice received 0.2 mg/kg of MK801 by intraperitoneal injection and returned to the open field immediately after administration and the movement trajectories were further recorded for 120 minutes. The accumulative travelled distance of the mice was counted in a 5-minute bin. Data statistics were performed using Student-t-test analysis, *p<0.05, ** p<0.01, *** p<0.001, **** p<0.0001.

[2] = target: 5-HT1A receptor (Homo sapiens (Human), UniProt P08908); assay: 5-HT1A receptor Gαi1 BRET (G protein trimer dissociation); assay type: cell-based; details: 5-HT1A receptor, G protein pathway;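 further: cells transiently co-expressing 5-HT1A receptor, luciferase-tagged Gαi1, Gβ3 and GFP-tagged Gγ9, seeded in 96-well plates for BRET measurement of G protein signaling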
Chain of 5-HT1A receptor (P08908 whole entry): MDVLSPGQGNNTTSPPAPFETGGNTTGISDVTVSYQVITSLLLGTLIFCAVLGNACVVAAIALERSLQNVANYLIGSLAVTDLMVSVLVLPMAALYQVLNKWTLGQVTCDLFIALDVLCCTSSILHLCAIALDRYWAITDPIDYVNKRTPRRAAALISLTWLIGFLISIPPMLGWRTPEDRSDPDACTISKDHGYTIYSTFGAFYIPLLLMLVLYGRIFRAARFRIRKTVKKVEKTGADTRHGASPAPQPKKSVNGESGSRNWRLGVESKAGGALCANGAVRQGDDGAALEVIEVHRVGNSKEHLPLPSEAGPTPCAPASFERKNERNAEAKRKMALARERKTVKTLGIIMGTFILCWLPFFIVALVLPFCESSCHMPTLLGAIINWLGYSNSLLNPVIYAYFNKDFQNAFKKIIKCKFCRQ
Protocol: The affinity of the compounds of the present disclosure for the 5-HTIA receptors was determined by the method of radioligand competition experiment. In the first step, a cell membrane component containing specific 5-HTIA receptor was prepared. A 10 cm culture dish was used for transfection with 10 ng of the 5-HTIA receptor and 40 μL of PEI. After 48 hours, the 10 cm culture dish was taken out from the cell incubator and the cultured cells had expressed the 5-HTIA receptor. A vacuum pump was used to suck off the culture medium, 3 mL of lysis buffer was added to each culture dish, and the cells were placed in a 4° C. cold room for 10 minutes. After the cells were detached, the cells were transferred to a 15 mL centrifuge tube and centrifuged at 1500 rpm for 5 minutes at 4° C., and the supernatant was discarded. The cell pellet was transferred to a tissue homogenizer, and 3 mL of lysis buffer was added and fully ground until the cells were broken. Then, cell suspension was equally aliquoted into several EP tubes, centrifuged at 12000 rpm for 5 minutes at 4° C., and the supernatant was discarded. The precipitate was the cell membrane component containing the 5-HT1A receptor. […] First, a standard binding buffer was added to the cell membrane component containing the 5-HT1A receptor, and the cell membrane was disrupted and resuspended with an electric tissue homogenizer. 30 μL of membrane protein suspension was added to each well of a 96-well plate. Then, 30 μL of different drugs were added to the 96-well plate sequentially from bottom to top to ensure that the final drug concentrations were 10^−5 M, 10^−6 M, 10^−7 M, 10^−8 M, 10^−9 M, and 0 M, with two replicates per treatment. Next, 30 μL of [3H]-LSD was added to each well of the 96-well plate. The plate was incubated for 2 hours at room temperature in the dark. Detection was conducted. The machine readout value reflected the amount of [3H]-LSD bound on the membrane, and after further data processing, the affinity Ki values of different compounds for the 5-HTIA receptor were obtained. To examine the downstream G protein signaling pathway mediated by 5-HTIA receptors, on the first day, a 6 cm culture dish was used for transfection with 1 μg of 5-HTIA receptors, 1 μg of Gαi1 containing C-terminal seaweed luciferase (Gαi1-Rluc), 1 μg of Gβ3, 1 μg of Gγ9 containing C-terminal green fluorescent protein (Gγ9-GFP), and 16 μL of PEI. The next day, the confluent cells of a 6 cm culture dish were digested and reseeded into a 96-well plate with 100 μL of culture medium was added to each well. On the third day, the drugs were added for test. The 96-well plate was taken out from the cell incubator to decant the culture medium, 40 μL of the substrate coelenterazine 400a (final concentration of 5 μM) was added to each well, and then 20 μL of different drugs were added sequentially from left to right to ensure that the final concentration of the drug decreased gradually from bottom to top, with two replicates per treatment. Finally, the prepared samples were loaded on machine for test. The machine readout value reflected the dissociation of G protein trimer, and thereby indicated the degree of activation of the G protein signaling pathway downstream of the 5-HTIA receptors.

What does the source list for CN(C)C(=O)N[C@H]1CC[C@H](CCN2CCN3c4cccc5scc(c45)CC3C2)CC1 (single isomer, unassigned; (-)) [(−)-I-27]?
Distance travelled (cm) ([1]; (−)-I-27 0.2 mg/kg i.p. + MK801 0.2 mg/kg, 70 minutes after MK801): 449.29 ± 121.61 cm; Distance travelled (cm) ([1]; (−)-I-27 0.2 mg/kg i.p. + MK801 0.2 mg/kg, 75 minutes after MK801): 564.58 ± 153.01 cm; Distance travelled (cm) ([1]; (−)-I-27 0.2 mg/kg i.p. + MK801 0.2 mg/kg, 80 minutes after MK801): 501.93 ± 119.91 cm; Distance travelled (cm) ([1]; (−)-I-27 0.2 mg/kg i.p. + MK801 0.2 mg/kg, 85 minutes after MK801): 471.35 ± 107.44 cm; Distance travelled (cm) ([1]; (−)-I-27 0.2 mg/kg i.p. + MK801 0.2 mg/kg, 90 minutes after MK801): 399.78 ± 105.26 cm; Distance travelled (cm) ([1]; (−)-I-27 0.2 mg/kg i.p. + MK801 0.2 mg/kg, 95 minutes after MK801): 301.32 ± 70.58 cm; Distance travelled (cm) ([1]; (−)-I-27 0.2 mg/kg i.p. + MK801 0.2 mg/kg, 100 minutes after MK801): 268.55 ± 74.28 cm; Distance travelled (cm) ([1]; (−)-I-27 0.2 mg/kg i.p. + MK801 0.2 mg/kg, 105 minutes after MK801): 299.24 ± 98.85 cm; Distance travelled (cm) ([1]; (−)-I-27 0.2 mg/kg i.p. + MK801 0.2 mg/kg, 110 minutes after MK801): 378.85 ± 88.69 cm; Distance travelled (cm) ([1]; (−)-I-27 0.2 mg/kg i.p. + MK801 0.2 mg/kg, 115 minutes after MK801): 236.86 ± 61.21 cm; Distance travelled (cm) ([1]; (−)-I-27 0.2 mg/kg i.p. + MK801 0.2 mg/kg, 120 minutes after MK801): 183.04 ± 51.72 cm; Distance travelled (cm) ([1]; (−)-I-27 0.2 mg/kg i.p., 0 minutes, before MK801): 426.03 ± 34.51 cm; Distance travelled (cm) ([1]; (−)-I-27 0.2 mg/kg i.p., −5 minutes, before MK801): 420.23 ± 44.8 cm; Distance travelled (cm) ([1]; (−)-I-27 0.2 mg/kg i.p., −10 minutes, before MK801): 462.71 ± 40.83 cm; Distance travelled (cm) ([1]; (−)-I-27 0.2 mg/kg i.p., −15 minutes, before MK801): 534.93 ± 50.26 cm; Distance travelled (cm) ([1]; (−)-I-27 0.2 mg/kg i.p., −20 minutes, before MK801): 614.02 ± 31.52 cm; Distance travelled (cm) ([1]; (−)-I-27 0.2 mg/kg i.p., −25 minutes, before MK801): 741.08 ± 56.17 cm; Distance (cm) travelled in 45 minutes ([1]; (−)-I-27 0.4 mg/kg i.p. + MK801 0.2 mg/kg, 0-45 minute interval after MK-801): 4056.3 cm; Distance travelled (cm) ([1]; (−)-I-27 0.4 mg/kg i.p. + MK801 0.2 mg/kg, 5 minutes after MK801): 479.22 ± 57.64 cm; Distance travelled (cm) ([1]; (−)-I-27 0.4 mg/kg i.p. + MK801 0.2 mg/kg, 10 minutes after MK801): 277.07 ± 32.68 cm; Distance travelled (cm) ([1]; (−)-I-27 0.4 mg/kg i.p. + MK801 0.2 mg/kg, 15 minutes after MK801): 316.03 ± 70.39 cm; Distance travelled (cm) ([1]; (−)-I-27 0.4 mg/kg i.p. + MK801 0.2 mg/kg, 20 minutes after MK801): 370.1 ± 75.27 cm; Distance travelled (cm) ([1]; (−)-I-27 0.4 mg/kg i.p. + MK801 0.2 mg/kg, 25 minutes after MK801): 403.74 ± 108.16 cm; Distance travelled (cm) ([1]; (−)-I-27 0.4 mg/kg i.p. + MK801 0.2 mg/kg, 30 minutes after MK801): 584.67 ± 129.63 cm; Distance travelled (cm) ([1]; (−)-I-27 0.4 mg/kg i.p. + MK801 0.2 mg/kg, 35 minutes after MK801): 633.6 ± 143.49 cm; Distance travelled (cm) ([1]; (−)-I-27 0.4 mg/kg i.p. + MK801 0.2 mg/kg, 40 minutes after MK801): 483.45 ± 104.6 cm; Distance travelled (cm) ([1]; (−)-I-27 0.4 mg/kg i.p. + MK801 0.2 mg/kg, 45 minutes after MK801): 508.42 ± 110.56 cm; Distance travelled (cm) ([1]; (−)-I-27 0.4 mg/kg i.p. + MK801 0.2 mg/kg, 50 minutes after MK801): 541.28 ± 85 cm; Distance travelled (cm) ([1]; (−)-I-27 0.4 mg/kg i.p. + MK801 0.2 mg/kg, 55 minutes after MK801): 483.29 ± 71.91 cm; Distance travelled (cm) ([1]; (−)-I-27 0.4 mg/kg i.p. + MK801 0.2 mg/kg, 60 minutes after MK801): 421.36 ± 61.47 cm; Distance travelled (cm) ([1]; (−)-I-27 0.4 mg/kg i.p. + MK801 0.2 mg/kg, 65 minutes after MK801): 371.77 ± 42.78 cm; Distance travelled (cm) ([1]; (−)-I-27 0.4 mg/kg i.p. + MK801 0.2 mg/kg, 70 minutes after MK801): 347.51 ± 55.13 cm; Distance travelled (cm) ([1]; (−)-I-27 0.4 mg/kg i.p. + MK801 0.2 mg/kg, 75 minutes after MK801): 296.62 ± 78.74 cm; Distance travelled (cm) ([1]; (−)-I-27 0.4 mg/kg i.p. + MK801 0.2 mg/kg, 80 minutes after MK801): 244.49 ± 76.54 cm; Distance travelled (cm) ([1]; (−)-I-27 0.4 mg/kg i.p. + MK801 0.2 mg/kg, 85 minutes after MK801): 160.39 ± 34.08 cm; Distance travelled (cm) ([1]; (−)-I-27 0.4 mg/kg i.p. + MK801 0.2 mg/kg, 90 minutes after MK801): 386.57 ± 158.41 cm; Distance travelled (cm) ([1]; (−)-I-27 0.4 mg/kg i.p. + MK801 0.2 mg/kg, 95 minutes after MK801): 201.39 ± 68.43 cm; Distance travelled (cm) ([1]; (−)-I-27 0.4 mg/kg i.p. + MK801 0.2 mg/kg, 100 minutes after MK801): 234.28 ± 63.3 cm; Distance travelled (cm) ([1]; (−)-I-27 0.4 mg/kg i.p. + MK801 0.2 mg/kg, 105 minutes after MK801): 229.02 ± 63.13 cm; Distance travelled (cm) ([1]; (−)-I-27 0.4 mg/kg i.p. + MK801 0.2 mg/kg, 110 minutes after MK801): 210.95 ± 45.58 cm; Distance travelled (cm) ([1]; (−)-I-27 0.4 mg/kg i.p. + MK801 0.2 mg/kg, 115 minutes after MK801): 323.92 ± 121.74 cm; Distance travelled (cm) ([1]; (−)-I-27 0.4 mg/kg i.p. + MK801 0.2 mg/kg, 120 minutes after MK801): 324.23 ± 68.48 cm; Distance travelled (cm) ([1]; (−)-I-27 0.4 mg/kg i.p., 0 minutes, before MK801): 441.97 ± 55.83 cm; Distance travelled (cm) ([1]; (−)-I-27 0.4 mg/kg i.p., −5 minutes, before MK801): 317.51 ± 24.51 cm; Distance travelled (cm) ([1]; (−)-I-27 0.4 mg/kg i.p., −10 minutes, before MK801): 419.17 ± 56.13 cm; Distance travelled (cm) ([1]; (−)-I-27 0.4 mg/kg i.p., −15 minutes, before MK801): 374.1 ± 25.44 cm; Distance travelled (cm) ([1]; (−)-I-27 0.4 mg/kg i.p., −20 minutes, before MK801): 475.66 ± 9.82 cm; Distance travelled (cm) ([1]; (−)-I-27 0.4 mg/kg i.p., −25 minutes, before MK801): 903.06 ± 46.43 cm; Gαi1 BRET (Emax %) [2]: (76%); EC50 ([2]; read-out: Gαi1 BRET EC50): 166 nM

From patent US20240383913A1, “THIOPHENE RING COMPOUND, PREPARATION METHOD THEREFOR AND APPLICATION THEREOF” (CENTER FOR EXCELLENCE IN MOLECULAR CELL SCIENCE, CHINESE …, priority 2021, published 2024)
